Laboratory results published in patent US20240382498A1, “NOVEL INHIBITOR OF HYPE-MEDIATED AMPYLATION” (Purdue Research Foundation, priority 2023, published 2024).

Key:
E234G HYPE [1] = molecular target: T1, E234G HYPE (Homo sapiens, UniProt Q9BVA6, E234G); test: Radioactive in-gel autoAMPylation assay with E234G HYPE and α-32P-ATP; format: biochemical; settings: 10 μM compound
T1 construct: Δ102 (aa 103-458) HYPE constructs (WT, E234G, and E234G/H363A); His6-SUMO (cleaved yes); made in house; host or cells: E. coli BL21-DE3-RILP
T1 sequence (Q9BVA6 103-458 E234G): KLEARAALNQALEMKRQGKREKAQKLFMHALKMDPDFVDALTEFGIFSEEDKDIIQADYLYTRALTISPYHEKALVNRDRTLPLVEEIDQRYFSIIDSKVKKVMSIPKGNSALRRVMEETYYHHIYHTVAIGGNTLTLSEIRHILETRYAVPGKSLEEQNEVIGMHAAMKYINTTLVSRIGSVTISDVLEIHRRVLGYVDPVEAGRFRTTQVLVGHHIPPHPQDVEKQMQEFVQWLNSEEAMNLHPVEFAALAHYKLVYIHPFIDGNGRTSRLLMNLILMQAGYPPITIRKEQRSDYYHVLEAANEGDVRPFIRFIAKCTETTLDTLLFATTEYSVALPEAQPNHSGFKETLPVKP
Procedure: (§1) 1 μM of HYPE (final concentration) and (where specified) 5 μM of T229A BiP (final concentration) were preincubated with 10 μM DMSO-dissolved compound (final concentration) or equivalent volume of 100% DMSO at room temperature for 10 min in HTS Buffer. Reactions were run for 10 min at 30° C. and began with the addition of 0.01 μCi/μL α-32P-ATP (final concentration). All reactions were performed according to our previously described protocol for in vitro radioactive AMPylation assays19. Where specified, 5 μM of T229A BiP (final concentration) was added to reactions before the addition of compound.

HeLa cells = test: MTT cell viability assay, HeLa; format: cell-based, human; settings: 48 hr
Procedure: (§2) The cell lines were procured from ATCC (American Type Culture Collection) and cultured in DMEM (Dulbecco's Modified Eagle Medium) supplemented with 10% FBS (fetal bovine serum) without antibiotics. Cells were grown and maintained in a humidified incubator at 37° C. with 5% CO2. For the MTT assay, cells were trypsinized and harvested at ˜80-90% confluency and seeded in 96 well plates at a density of 1×10^4 cells per well. The seeded cells were incubated overnight and treated with 1 μM, 3 μM, 5 μM, 7 μM, 10 μM, 20 μM, 30 μM or 50 μM (final concentration) of DMSO-dissolved compound for 48 hr. To rule out vehicle induced toxicity, only 0.5% of final DMSO concentration was added to the cells. Post-incubation, the compound treatment was removed and replaced with 0.5 mg/ml (final concentration) of freshly prepared MTT solution. After incubating for 3.5 hr at 37° C., 5% CO2 humidified incubator, MTT was carefully removed without aspirating the formazan crystals and replaced with equivalent volume of DMSO to dissolve the formazan crystals. The plates were then read using a multi-plate reader at 570 nm. The absorbance was recorded and % viability was calculated according to the following equation:
(§3) [formula] • where, Abt is the absorbance of compound treated cells and Abc is the absorbance of control cells.

[2] = molecular target: T2, E234G HYPE AMPylation of T229A BiP (Homo sapiens, UniProt Q9BVA6, E234G); test: Fluorescence in-gel T229A BiP AMPylation assay with E234G HYPE and Fl-ATP; format: biochemical; settings: 10 μM compound
T2 construct: Δ102 (aa 103-458) HYPE constructs (WT, E234G, and E234G/H363A); His6-SUMO (cleaved yes); made in house; host or cells: E. coli BL21-DE3-RILP
T2 sequence (Q9BVA6 103-458 E234G): T1 sequence (Q9BVA6 103-458 E234G)
Procedure: (§4) 1 μM of WT HYPE (final concentration) was preincubated with 10 μM DMSO-dissolved compound (final concentration) or equivalent volume of 100% DMSO at room temperature for 10 min. Reactions were run for 20 hr at 30° C. in the dark and began with the addition of 1 μM Fl-ATP (final concentration). Alternatively, E234G HYPE AMPylation reactions were run at 10 min due to its hyperactivity. All other parameters were held constant. All reactions were performed HTS Buffer (50 mM HEPES, 1 mM MgCl2, 0.1% Triton X-100, pH 7.50). All reactions were quenched with 4×SDS loading dye, boiled for 5 min at 95° C., and samples were run on 12% SDS-PAGE gels. Gels were imaged on a Typhoon 9500 FLA imager (General Electric) for fluorescence at 473 nm. Imaged gels were then stained with Coomassie Brilliant Blue, destained, and imaged for protein concentration. Where specified, 5 μM of T229A BiP (final concentration) was added to reactions before the addition of compound.

E234G HYPE [3] = molecular target: T1, E234G HYPE; test: Fluorescence in-gel autoAMPylation assay with E234G HYPE and Fl-ATP; format: biochemical; settings: 10 μM compound
Procedure: as §4

[4] = molecular target: T2, E234G HYPE AMPylation of T229A BiP; test: Radioactive in-gel T229A BiP AMPylation assay with E234G HYPE and α-32P-ATP; format: biochemical; settings: 10 μM compound
Procedure: as §1

HEK 293 cells = test: MTT cell viability assay, HEK 293; format: cell-based, human; settings: HEK 293, 10 μM, 48 hr
Procedure: as §2, §3

With `c1cn(-c2ccc(-c3nnc(-c4ccoc4)o3)cn2)cn1` [Compound I2.10] the “inhibition of E234G HYPE autoAMPylation in gel” value (E234G HYPE [1]) was “bioactivity of I2.10 is mirrored”, the cell viability (HeLa cells; HeLa (so in the source), 50 μM) was about 60% and the cell viability (HeLa cells; HeLa, up to 50 μM) was 100%. The “inhibition of T229A BiP AMPylation in gel” value [2] was “confirm the inhibitory properties”, the “inhibition of E234G HYPE autoAMPylation in gel” value (E234G HYPE [3]) was “consistently perturbs HYPE autoAMPylation” and the “inhibition of T229A BiP AMPylation in gel” value [4] was “inhibitory efficacy against BiP AMPylation was reproducible”. It also gave a cell viability (HEK 293 cells) of about 80%.
